Experimental data published in publication PMC8267566, “Human GPR17 missense variants identified in metabolic disease patients have distinct downstream signaling profiles” (The Journal of Biological Chemistry, 2021).

How the values were obtained:
Format in all cases: cell-based
[1] = biological target: T1, hGPR17L-G354V-Tango (Homo sapiens, UniProt Q13304, G354V); experiment: Tango β-arrestin recruitment assay
T1 construct: Tango fusion module; host or cells: HTLA (HEK293T-derived)
Description: (§1) HTLA cells were seeded at 10,000 cells/well into white, opaque, poly-D-lysine-coated 96-well plates and transfected with hGPR17L-WT-Tango or hGPR17L-variant-Tango plasmids the following day using lipofectamine 3000 according to the manufacturer's protocol. The next day, cells were incubated at 37 °C and 5% CO2 in serum-free growth media for a 4 h serum starvation. MDL29,951 was then diluted in assay buffer (HBSS, 20 mM HEPES, pH 7.2), added to the cells, and incubated for 16 h at 37 °C and 5% CO2. Drug treatment was decanted and 80 μl/well of Promega Bright-Glo reagent (diluted 20× in assay buffer) (E2610; Promega Corporation) was added and incubated at room temperature for 15 min. Luminescence (1 s per well integration time) was read on a Molecular Devices SpectraMax iD5 plate reader.

[2] = biological target: T2, hGPR17L-R248Q-Tango (Homo sapiens, UniProt Q13304, R248Q); experiment: Tango β-arrestin recruitment assay
T2 construct: Tango fusion module; host or cells: HTLA (HEK293T-derived)
T2 sequence (Q13304 whole entry R248Q, the tested form may be a part): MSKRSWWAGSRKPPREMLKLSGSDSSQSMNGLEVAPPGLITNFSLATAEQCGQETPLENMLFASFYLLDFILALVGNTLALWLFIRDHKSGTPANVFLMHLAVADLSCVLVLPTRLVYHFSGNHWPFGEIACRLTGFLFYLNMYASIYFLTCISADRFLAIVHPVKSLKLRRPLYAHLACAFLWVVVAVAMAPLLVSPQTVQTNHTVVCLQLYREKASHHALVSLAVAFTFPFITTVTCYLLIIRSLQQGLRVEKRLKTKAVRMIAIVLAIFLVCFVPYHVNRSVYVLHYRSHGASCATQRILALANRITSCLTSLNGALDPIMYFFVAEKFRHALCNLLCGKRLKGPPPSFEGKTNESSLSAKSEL
Description: as §1

[3] = biological target: T3, hGPR17L-A131T-Tango (Homo sapiens, UniProt Q13304, A131T); experiment: Tango β-arrestin recruitment assay
T3 construct: Tango fusion module; host or cells: HTLA (HEK293T-derived)
T3 sequence (Q13304 whole entry A131T, the tested form may be a part): as the sequence (Q13304 whole entry R248Q, the tested form may be a part) above, with A131T, Q248R counted along it
Description: as §1

[4] = biological target: T4, hGPR17L-F43L-Tango (Homo sapiens, UniProt Q13304, F43L); experiment: Tango β-arrestin recruitment assay
T4 construct: Tango fusion module; host or cells: HTLA (HEK293T-derived)
T4 sequence (Q13304 whole entry F43L, the tested form may be a part): as the sequence (Q13304 whole entry R248Q, the tested form may be a part) above, with F43L, Q248R counted along it
Description: as §1

[5] = biological target: T5, hGPR17L-V96M-Tango (Homo sapiens, UniProt Q13304, V96M); experiment: Tango β-arrestin recruitment assay; details: HTLA cells, MDL29,951 0.5 nM to 30 μM
T5 construct: Tango fusion module; host or cells: HTLA (HEK293T-derived)
T5 sequence (Q13304 whole entry V96M, the tested form may be a part): as the sequence (Q13304 whole entry R248Q, the tested form may be a part) above, with V96M, Q248R counted along it
Description: as §1

[6] = biological target: T6, hGPR17L-V103M-Tango (Homo sapiens, UniProt Q13304, V103M); experiment: Tango β-arrestin recruitment assay
T6 construct: Tango fusion module; host or cells: HTLA (HEK293T-derived)
T6 sequence (Q13304 whole entry V103M, the tested form may be a part): as the sequence (Q13304 whole entry R248Q, the tested form may be a part) above, with V103M, Q248R counted along it
Description: as §1

[7] = biological target: T7, hGPR17L-R301H-Tango (Homo sapiens, UniProt Q13304, R301H); experiment: Tango β-arrestin recruitment assay
T7 construct: Tango fusion module; host or cells: HTLA (HEK293T-derived)
T7 sequence (Q13304 whole entry R301H, the tested form may be a part): as the sequence (Q13304 whole entry R248Q, the tested form may be a part) above, with Q248R, R301H counted along it
Description: as §1

[8] = biological target: T8, hGPR17L-G136S-Tango (Homo sapiens, UniProt Q13304, G136S); experiment: Tango β-arrestin recruitment assay; details: HTLA cells, 30 μM MDL29,951
T8 construct: Tango fusion module; host or cells: HTLA (HEK293T-derived)
T8 sequence (Q13304 whole entry G136S, the tested form may be a part): as the sequence (Q13304 whole entry R248Q, the tested form may be a part) above, with G136S, Q248R counted along it
Description: as §1

[9] = biological target: T9, hGPR17L-D105N-Tango (Homo sapiens, UniProt Q13304, D105N); experiment: Tango β-arrestin recruitment assay
T9 construct: Tango fusion module; host or cells: HTLA (HEK293T-derived)
T9 sequence (Q13304 whole entry D105N, the tested form may be a part): as the sequence (Q13304 whole entry R248Q, the tested form may be a part) above, with D105N, Q248R counted along it
Description: as §1

[10] = biological target: T10, hGPR17L-WT-Tango (Homo sapiens, UniProt Q13304); experiment: Tango β-arrestin recruitment assay
T10 construct: Tango fusion module; host or cells: HTLA (HEK293T-derived)
T10 sequence (Q13304 whole entry, the tested form may be a part): as the sequence (Q13304 whole entry R248Q, the tested form may be a part) above, with Q248R counted along it
Description: as §1

[11] = biological target: T11, hGPR17L-A131T (Homo sapiens, UniProt Q13304, A131T); experiment: Calcium flux assay
T11 construct: expressed in transfected cells; host or cells: HEK293 (ATCC CRL-1573), transient transfection
T11 sequence (Q13304 whole entry A131T): as the sequence (Q13304 whole entry R248Q, the tested form may be a part) above, with A131T, Q248R counted along it
Description: (§2) HEK293 cells were seeded at 20,000 cells/well into black, optical bottom, poly-D-lysine coated 96-well plates. The following day, cells were transiently transfected with pcDNA3-HA-hGPR17L or pcDNA3-HA-hGPR17L-variants using lipofectamine 3000. Twenty-four hours after transfection, the growth medium and transfection mix were decanted and 100 μl/well assay buffer (HBSS, 20 mM HEPES, pH 7.2) and 100 μl/well Calcium 6 loading dye (R8190; Molecular Devices) were added to the plate and incubated at 37 °C, 5% CO2 for 1 h 45 min. Plate was allowed to equilibrate to room temperature on the bench top for 30 min. MDL29,951 diluted in assay buffer was added to the wells and fluorescence (485 nm excitation, 525 nm emission, and 515 nm automatic emission cutoff) was measured using a Molecular Devices FlexStation3 (Molecular Devices). For experiments with pertussis toxin, cells were pretreated with 100 ng/ml pertussis toxin overnight and 100 ng/ml pertussis toxin was included with Calcium 6 loading dye for calcium flux assays.

[12] = biological target: T12, hGPR17L-G354V (Homo sapiens, UniProt Q13304, G354V); experiment: Calcium flux assay
T12 construct: expressed in transfected cells; host or cells: HEK293 (ATCC CRL-1573)
T12 sequence (Q13304 whole entry G354V): as the sequence (Q13304 whole entry R248Q, the tested form may be a part) above, with Q248R, G354V counted along it
Description: as §2

[13] = biological target: T13, hGPR17L-WT (Homo sapiens, UniProt Q13304); experiment: Calcium flux assay
T13 construct: expressed in transfected cells; host or cells: HEK293 (ATCC CRL-1573), transient transfection of pcDNA3-HA-hGPR17L
T13 sequence (Q13304 whole entry): as the sequence (Q13304 whole entry R248Q, the tested form may be a part) above, with Q248R counted along it
Description: as §2

[14] = biological target: T14, hGPR17L-F43L (Homo sapiens, UniProt Q13304, F43L); experiment: Calcium flux assay
T14 construct: expressed in transfected cells; host or cells: HEK293 (ATCC CRL-1573), transient transfection
T14 sequence (Q13304 whole entry F43L): as the sequence (Q13304 whole entry R248Q, the tested form may be a part) above, with F43L, Q248R counted along it
Description: as §2

[15] = biological target: T15, hGPR17L-V103M (Homo sapiens, UniProt Q13304, V103M); experiment: Calcium flux assay
T15 construct: expressed in transfected cells; host or cells: HEK293 (ATCC CRL-1573), transient transfection
T15 sequence (Q13304 whole entry V103M): as the sequence (Q13304 whole entry R248Q, the tested form may be a part) above, with V103M, Q248R counted along it
Description: as §2

[16] = biological target: T16, hGPR17L-R248Q (Homo sapiens, UniProt Q13304, R248Q); experiment: Calcium flux assay
T16 construct: expressed in transfected cells; host or cells: HEK293 (ATCC CRL-1573), transient transfection
T16 sequence (Q13304 whole entry R248Q): as the sequence (Q13304 whole entry R248Q, the tested form may be a part) above
Description: as §2

[17] = read-out: β-arrestin recruitment EC50, HTLA cells
[18] = read-out: Ca2+ EC50, HEK293, calcium mobilization

T1 sequence (Q13304 whole entry G354V, the tested form may be a part): as the sequence (Q13304 whole entry R248Q, the tested form may be a part) above, with Q248R, G354V counted along it

Compound: O=C(O)CCc1c(C(=O)O)[nH]c2cc(Cl)cc(Cl)c12 [MDL29,951]
- β-arrestin recruitment pEC50 ± SEM ([1]; HTLA cells): 6.96 ± 0.04
- EC50 [1, 17]: 110 nM
- β-arrestin recruitment Efficacy (% of WT span) ([2]; HTLA cells): 73 ± 16 % of WT span
- β-arrestin recruitment pEC50 ± SEM ([2]; HTLA cells): 7.55 ± 0.16
- EC50 [2, 17]: 28 nM
- β-arrestin recruitment Efficacy (% of WT span) ([3]; HTLA cells): 97 ± 5.2 % of WT span
- β-arrestin recruitment pEC50 ± SEM ([3]; HTLA cells): 6.55 ± 0.06
- EC50 [3, 17]: 280 nM
- β-arrestin recruitment Efficacy (% of WT span) ([4]; HTLA cells): 61 ± 13 % of WT span
- β-arrestin recruitment pEC50 ± SEM ([4]; HTLA cells): 7.08 ± 0.03
- EC50 [4, 17]: 83 nM
- agonist-stimulated β-arrestin recruitment [5]: no apparent agonist-stimulated β-arrestin recruitment
- β-arrestin recruitment Efficacy (% of WT span) ([6]; HTLA cells): 84 ± 13 % of WT span
- β-arrestin recruitment pEC50 ± SEM ([6]; HTLA cells): 6.69 ± 0.05
- EC50 [6, 17]: 210 nM
- β-arrestin recruitment Efficacy (% of WT span) ([7]; HTLA cells): 69 ± 9.0 % of WT span
- β-arrestin recruitment pEC50 ± SEM ([7]; HTLA cells): 6.55 ± 0.04
- EC50 [7, 17]: 280 nM
- agonist-stimulated β-arrestin recruitment [8]: only a modest response
- β-arrestin recruitment Efficacy (% of WT span) ([9]; HTLA cells): 100 ± 5.0 % of WT span
- β-arrestin recruitment pEC50 ± SEM ([9]; HTLA cells): 6.53 ± 0.03
- EC50 [9, 17]: 290 nM
- maximum β-arrestin recruitment response ([10]; HTLA cells): 1.78 ± 0.09 fold over baseline
- β-arrestin recruitment Efficacy (% of WT span) ([10]; HTLA cells): 100 % of WT span
- β-arrestin recruitment pEC50 ± SEM ([10]; HTLA cells): 7.02 ± 0.02
- EC50 [10, 17]: 96 nM
- Ca2+ Efficacy (% of WT Emax) ([11]; HEK293): 109 ± 8.9 % of WT Emax
- Ca2+ pEC50 ± SEM ([11]; HEK293, calcium mobilization): 6.63 ± 0.08
- EC50 [11, 18]: 230 nM
- Ca2+ Efficacy (% of WT Emax) ([12]; HEK293): 92 ± 2.6 % of WT Emax
- Ca2+ pEC50 ± SEM ([12]; HEK293, calcium mobilization): 7.05 ± 0.29
- EC50 [12, 18]: 89 nM
- calcium flux efficacy with pertussis toxin (% of control pretreatment) [13]: 82 ± 1.4 % of control pretreatment
- calcium flux potency with pertussis toxin, fold shift in EC50 [13]: approximately 2.5 fold
- Ca2+ Efficacy (% of WT Emax) ([13]; hGPR17L-WT, HEK293): 100 % of WT Emax
- maximum stimulation of calcium mobilization ([13]; hGPR17L-WT, HEK293): 1.51 ± 0.14 Peak ΔF/F
- Ca2+ pEC50 ± SEM ([13]; hGPR17L-WT, HEK293, calcium mobilization): 7.09 ± 0.11
- EC50 ([13]; read-out: Ca2+ EC50, hGPR17L-WT, HEK293, calcium mobilization): 82 nM
- Ca2+ Efficacy (% of WT Emax) ([14]; HEK293): 97 ± 3.9 % of WT Emax
- Ca2+ pEC50 ± SEM ([14]; HEK293, calcium mobilization): 7.25 ± 0.19
- EC50 [14, 18]: 57 nM
- Ca2+ Efficacy (% of WT Emax) ([15]; HEK293): 119 ± 8.4 % of WT Emax
- Ca2+ pEC50 ± SEM ([15]; HEK293, calcium mobilization): 6.66 ± 0.09
- EC50 [15, 18]: 220 nM
- Ca2+ Efficacy (% of WT Emax) ([16]; HEK293): 103 ± 25 % of WT Emax
- Ca2+ pEC50 ± SEM ([16]; HEK293, calcium mobilization): 6.92 ± 0.02
- EC50 [16, 18]: 120 nM
